Source: patent publication US4162326A, “Insect control agents” (Stauffer Chemical Company, priority 1978, dated 1979)

Tested on: milkweed bug, Oncopeltus fasciatus (Dallas)
Experiment: anti-juvenile hormone activity and insecticidal activity against the milkweed bug (treated filter paper, second-instar nymphs)
Assay type: in vivo
Conditions: for LD50 (ED50 or LD50; compounds without asterisk, functioned as insecticides): insecticidal activity, mortality to at least 50% of the insects; for LD50 (ED50 or LD50; compounds without asterisk, functioned as insecticides) / ED50 (ED50 or LD50; compounds marked with asterisk, functioned as anti-juvenile hormone): second-instar nymphs, treated filter paper, 70° F, 3 to 4 weeks; for type of action (anti-juvenile hormone or general insecticide): statement in words on Table II; for ED50 (ED50 or LD50; compounds marked with asterisk, functioned as anti-juvenile hormone): anti-juvenile hormone activity (asterisk)
Procedure: Compounds were tested for anti-juvenile hormone activity and insecticidal activity against the milkweed bug, Oncopeltus fasciatus (Dallas) as follows: The test compounds were diluted in acetone and impregnated into a filter paper disc by applying 0.6 milliliters and permitting the solvent to completely evaporate. Ten second-instar nymphs of Oncopeltus fasciatus (Dallas) were placed in a petri dish with the treated filter paper. The nymphs were supplied with milkweed seeds and water (by soaking dental cotton in a 4-dram vial cap). All petri dishes were stored at 70° F. The compounds were tested at concentrations ranging from 10 μg/cm^2 of filter paper downwards. The insecticidal or anti-juvenile hormone effect was determined when control insects had developed into normal adults, normally 3 to 4 weeks. The asterisk in the Table signifies that the indicated compound functioned as an anti-juvenilehormone. Compounds not marked with an asterisk functioned as insecticides,resulting in mortality to at least 50% of the insects at the indicated level.

Row | SMILES | LD50 (ED50 or LD50; compounds without asterisk, functioned as insecticides) | type of action (anti-juvenile hormone or general insecticide) | ED50 (ED50 or LD50; compounds marked with asterisk, functioned as anti-juvenile hormone)
1 | C#CCOc1cc2c(cc1OC)OC(C)(C)C=C2 [Compound 4] | 6 ug/cm^2 | function as general insecticides | 
2 | C=CCOc1cc2c(cc1OC)C=CC(C)(C)O2 [Compound 7] |  | function as anti-juvenile hormones | 0.5 ug/cm^2
3 | C#CCOc1ccc2c(c1)OC(C)(C)C=C2 [Compound 1] | 2 ug/cm^2 | function as general insecticides | 
4 | C#CCOc1cc2c(cc1OC)C=CC(C)(C)O2 [Compound 6] |  | function as anti-juvenile hormones | 1 ug/cm^2
5 | C=CCOc1ccc2c(c1)OC(C)(C)C=C2 [Compound 3, 2,2-dimethyl-7-allyloxy-3-chromene] |  | function as anti-juvenile hormones | 2 ug/cm^2
6 | CC#CCOc1ccc2c(c1)OC(C)(C)C=C2 [Compound 2] |  | function as anti-juvenile hormones | 0.5 ug/cm^2
7 | C=CCOc1cc2c(cc1OC)OC(C)(C)C=C2 [Compound 5] | 8 ug/cm^2 | function as general insecticides | 
